Reference: paper PMC3006138, “Fexinidazole – A New Oral Nitroimidazole Drug Candidate Entering Clinical Development for the Treatment of Sleeping Sickness” (PLoS Neglected Tropical Diseases, 2010)

Experiments:
[1] = set-up: method as in study 0339-2007; details: 7-day repeated toxicity study, top dose 2000 mg/kg, ref study 0339-2007; cited from earlier work
[2] = set-up: method as in ref 3 (report no. 0275-2007-R); details: single 50 mg/kg po, ref 3 (report no. 0275-2007-R); cited from earlier work
[3] = system: T. b. rhodesiense STIB900; assay: Acute infection mouse model; type: in vivo
Method: Female NMRI mice were infected via intraperitoneal injection with bloodstream forms of T. b. rhodesiense STIB900 or T. b. gambiense 130R and treated with test drugs daily for 4 consecutive days, starting on day 3 or 7 after infection, respectively, or with bloodstream forms of T. b brucei GVR35 and treated daily from day 21 after infection for 5 days. Parasitemia was evaluated by tail blood examination and surviving, aparasitaemic mice at 60, 90, or 180 days, respectively, were considered cured.

[4] = Hepatocyte intrinsic clearance and metabolite profile; type: in vitro ADME, rat; details: male, Sprague Dawley, rat, cryopreserved hepatocytes, 1 µM
Method: Fexinidazole was incubated with cryopreserved hepatocytes from male CD-1 mice, male Sprague Dawley rats, male beagle dogs, male cynomolgus monkeys, and from pooled white or African-American human donor samples (purchased commercially), at concentrations of 1 µM and 10 µM. […] The incubated samples were analyzed by LC-MS after extraction into acetonitrile.
A quality control analysis of fexinidazole was performed via 1H-NMR in DMSO and LC- […]
provided by the Swiss Tropical Institute (Basel, Switzerland).
Reagents and solvents were of analytical grade and obtained from Sigma-Aldrich (St. Louis, […]
Cryopreserved hepatocytes from the male CD1 mouse, lot CSI; male Sprague Dawley rat, lot LPL; male beagle dog, lot BWX; male cynomolgus monkey, lot EHH; and pooled human samples, lot MJI, were purchased from In Vitro Technologies Inc (Baltimore, Maryland, […]
5.4. In vitro Incubations
On the day of the experiment a 10 mM stock solution of fexinidazole in DMSO was prepared and, within 3 hours, aliquots of this freshly prepared solution, after suitable dilution, were added to the incubation matrix, to reach fexinidazole final concentrations of 1 and 10 µM. The final percentage of DMSO was 0.01% in the incubation samples for the […]
On the day of experiment, the cryopreserved hepatocytes were thawed following the detailed instructions provided by the supplier.
The number of viable cells was determined using a Trypan Blue exclusion method.
5.4.1. Intrinsic Clearance Study […]
µM with mouse, rat, dog, monkey and human hepatocytes (300000 cells/mL for the mouse and 1 million cells/mL for the other species) in a final incubation volume of 0.75 mL […]
Incubations were performed in duplicate in a 48-well plate under shaking. Sampling was performed using an automatic liquid handling system (Multiprobe II EX, Packard). At 0, 1, 5, 10, 15, 20, 30, 60 and 120 minutes, 50 µL aliquots of the incubates were taken, then 80 µL of ice-cold acetonitrile and 20 µL of 1 µM warfarin in acetonitrile (internal standard) were added, and samples centrifuged at 2000 rpm for 20 min. The supernatant was analyzed by LC-MS/MS. […]
the medium alone at t = 0 and 120 minutes.
For the determination of phase I and phase II activity of hepatocytes, 7-ethoxycoumarin (7-EC) 1 µM, and 7-hydroxycoumarin (7-HC) 30 µM were used as positive controls and incubated under the same conditions as fexinidazole. Aliquots of incubates were taken at 0, 10, 20, 30, 60 and 120 minutes and processed as fexinidazole samples.
5.4.2. Metabolite Profile Study
For metabolite profiling, fexinidazole was incubated at a concentration of 10 µM with mouse, rat, dog, monkey and human hepatocytes (300000 cells/mL for the mouse and 1 million cells/mL for the other species) in a final incubation volume of 2 mL Leibovitz L-15 […]
Aliquots of the incubation samples were taken at t = 0, 30 and 120 minutes; the metabolism was stopped by the addition of an equal volume of cold acetonitrile and the samples centrifuged at 1500 rpm for 20 min. The supernatant was stored at -20°C until analysis. Control incubations were performed with the compound in the medium alone […]
5.5. Analysis of Samples for Intrinsic Clearance Determination
The analysis of the samples for intrinsic clearance determination was performed by an LC-MS/MS method, using the following conditions:
HPLC Equipment and Conditions
HPLC system Agilent 1100 binary pump (Agilent, Palo Alto, USA)
Autosampler CTC Pal (Alfatech, San Jose, USA)
Analytical column Guard Column SB-C8 4.6 x 12.5 mm, 5 µm (Zorbax)
Column temperature ambient
Mobile phase A 10 mM ammonium formate pH 4.0: acetonitrile (95:5, v:v)
Mobile phase B 10 mM ammonium formate pH 4.0: acetonitrile (5:95, v:v) […]
Gradient conditions Step Total time (min) flow (µL/min) %A % B […]
MS Equipment and Conditions
Mass spectrometer API 4000 Triple Quadrupole (MDS-Sciex, Toronto, […]
Source Turbo Ion Spray (TIS)
Ion mode Positive for fexinidazole and 7-EC.
Negative for 7-HC, 7-HC sulphate and 7-HC glucuronide.

For CSc1ccc(OCc2ncc([N+](=O)[O-])n2C)cc1 [Fexinidazole, 1-methyl-2-((p-(methylthio)phenoxy)methyl)-5-nitroimidazole], the tolerability [1] is listed as “well tolerated”, the “AUC0-tlast” value [2] is listed as 416 ng⋅h/mL and the Cmax [2] is listed as 154 ng/mL. For the same compound, the Cured/infected ([3]; 25 mg/kg×4 days po) was 0/4, the Mean relapse time ([3]; 25 mg/kg×4 days po) was 12 days and the efficacy ([3]; 50 mg/kg twice a day for 4 days po, T. b. rhodesiense and T. b. gambiense acute models) was “effective in curing”. The Cured/infected ([3]; 50 mg/kg×4 days po) was 1/4, the Mean relapse time ([3]; 50 mg/kg×4 days po) was greater than 27 days and the Cured/infected ([3]; 100 mg/kg×4 days po) was 4/4. For the same compound, the Mean relapse time ([3]; 100 mg/kg×4 days po) was greater than 60 days, the efficacy ([3]; single high dose, acute model, data not shown) was “partially curative” and the half-life at 1 µM [4] was 1.2 min. It also gave a CLint scaled at 1 µM ([4]; read-out: CLint in vitro) greater than 3000 mL/min/kg and a hepatocyte CLint at 1 µM ([4]; read-out: CLint in vitro) of 602 µL/min/1e6 cells.
